Assay results: ChEMBL document CHEMBL1201862, “PubChem BioAssay data set” (2004)
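Tested at 5 concentrations; 48 h exposure; 96-well plates; endpoints linearly interpolated, else capped at highest concentration. GI50 marks 50% less growth.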 The source made the active and inactive calls. No stated cut-off is given here; in the data, active = GI50 up to about 1.1 µM and inactive = higher.

Columns and labels:
Assay in all cases: NCI-60 cell line screen, 48 h
ACHN = test system: ACHN
NCI-H522 = test system: NCI-H522
RPMI-8226 = test system: RPMI-8226
SNB-75 = test system: SNB-75
SF-295 = test system: SF-295
OVCAR-3 = test system: OVCAR-3
NCI/ADR-RES = test system: NCI/ADR-RES
NCI-H23 = test system: NCI-H23
HL-60 = test system: HL-60
OVCAR-5 = test system: OVCAR-5
M14 = test system: M14
MDA-N = test system: MDA-N
CCRF-CEM = test system: CCRF-CEM
SK-MEL-5 = test system: SK-MEL-5
HOP-92 = test system: HOP-92
SW-620 = test system: SW-620
Malme-3M = test system: Malme-3M
SR = test system: SR
MDA-MB-231 = test system: MDA-MB-231
UACC-257 = test system: UACC-257

In the case of `Cc1ccc(N2CN3OC(=O)N(c4ccccc4)[C@@]3(c3ccccc3)C2)cc1`, the GI50 (ACHN) is reported as 39.4 µM (inactive), the GI50 (NCI-H522) is reported as 10.1 µM (inactive) and the GI50 (RPMI-8226) is reported as 45.6 µM (inactive). The GI50 (SNB-75) was 36.6 µM (inactive), the GI50 (SF-295) was 17.5 µM (inactive) and the GI50 (OVCAR-3) was 19.4 µM (inactive). The GI50 (NCI/ADR-RES) was 29 µM (inactive), the GI50 (NCI-H23) was 24.2 µM (inactive) and the GI50 (HL-60) was 26.2 µM (inactive). For the same molecule, the GI50 (OVCAR-5) was > 100 µM (inactive), the GI50 (M14) was 65.5 µM (inactive) and the GI50 (MDA-N) was 33.6 µM (inactive). The GI50 (CCRF-CEM) was 34.4 µM (inactive), the GI50 (SK-MEL-5) was 31.3 µM (inactive) and the GI50 (HOP-92) was 16.9 µM (inactive). For the same molecule, the GI50 (SW-620) was 80 µM (inactive), the GI50 (Malme-3M) was 34 µM (inactive) and the GI50 (SR) was 16 µM (inactive). For the same molecule, the GI50 (MDA-MB-231) was 26.9 µM (inactive) and the GI50 (UACC-257) was 26.6 µM (inactive).
With `O=C(CCCl)NN=C1NCCCN1` the GI50 (ACHN) was > 100 µM (inactive), the GI50 (NCI-H522) was > 100 µM (inactive) and the GI50 (RPMI-8226) was > 100 µM (inactive). For the same molecule, the GI50 (SNB-75) was > 100 µM (inactive), the GI50 (SF-295) was > 100 µM (inactive) and the GI50 (OVCAR-3) was > 100 µM (inactive). For the same molecule, the GI50 (NCI/ADR-RES) was > 100 µM (inactive), the GI50 (NCI-H23) was > 100 µM (inactive) and the GI50 (HL-60) was > 100 µM (inactive). For the same molecule, the GI50 (OVCAR-5) was > 100 µM (inactive), the GI50 (M14) was > 100 µM (inactive) and the GI50 (MDA-N) was > 100 µM (inactive). The GI50 (CCRF-CEM) was > 100 µM (inactive), the GI50 (SK-MEL-5) was > 100 µM (inactive) and the GI50 (HOP-92) was > 100 µM (inactive). For the same molecule, the GI50 (SW-620) was > 100 µM (inactive), the GI50 (Malme-3M) was > 100 µM (inactive) and the GI50 (SR) was > 100 µM (inactive). For the same molecule, the GI50 (MDA-MB-231) was > 100 µM (inactive) and the GI50 (UACC-257) was > 100 µM (inactive).
With `COC(=O)CCc1cc(O)c2c(c1)C(C(=O)OC)C(c1ccc(O)c(O)c1)O2` (stereo not given) the GI50 (ACHN) was 33.7 µM (inactive), the GI50 (NCI-H522) was 12.6 µM (inactive) and the GI50 (RPMI-8226) was 22 µM (inactive). The GI50 (SNB-75) was 2.35 µM (inactive), the GI50 (SF-295) was 17.7 µM (inactive) and the GI50 (OVCAR-3) was 3.71 µM (inactive). The GI50 (NCI/ADR-RES) was 42.3 µM (inactive), the GI50 (NCI-H23) was 26.6 µM (inactive) and the GI50 (HL-60) was 2.55 µM (inactive). The GI50 (OVCAR-5) was > 65.5 µM (inactive), the GI50 (M14) was 13.9 µM (inactive) and the GI50 (MDA-N) was 1.9 µM (inactive). The GI50 (CCRF-CEM) was 3.21 µM (inactive), the GI50 (SK-MEL-5) was 4.06 µM (inactive) and the GI50 (HOP-92) was 44 µM (inactive). For the same molecule, the GI50 (SW-620) was 6.17 µM (inactive), the GI50 (Malme-3M) was 6.97 µM (inactive) and the GI50 (SR) was 3.45 µM (inactive). The GI50 (MDA-MB-231) was 11.7 µM (inactive) and the GI50 (UACC-257) was > 48.2 µM (inactive).
`CC1(C)N=C(N)N=C(N)N1c1ccc(CCCCc2ccc(S(=O)(=O)F)cc2Cl)c(Cl)c1` was tested, and the GI50 (ACHN) was 2.22 µM (inactive), the GI50 (NCI-H522) was 4.68 µM (inactive) and the GI50 (RPMI-8226) was 3.05 µM (inactive). The GI50 (SNB-75) was 9.23 µM (inactive), the GI50 (SF-295) was 1.84 µM (inactive) and the GI50 (OVCAR-3) was 5.71 µM (inactive). For the same molecule, the GI50 (NCI/ADR-RES) was 143 µM (inactive), the GI50 (NCI-H23) was 4.07 µM (inactive) and the GI50 (HL-60) was 0.366 µM (active). The GI50 (OVCAR-5) was 17.2 µM (inactive), the GI50 (M14) was 1.63 µM (inactive) and the GI50 (MDA-N) was 0.916 µM (active). The GI50 (CCRF-CEM) was 1.62 µM (inactive), the GI50 (SK-MEL-5) was 1.05 µM (active) and the GI50 (HOP-92) was 4.18 µM (inactive). For the same molecule, the GI50 (SW-620) was 2.7 µM (inactive), the GI50 (Malme-3M) was 4.05 µM (inactive) and the GI50 (SR) was 0.207 µM (active). The GI50 (MDA-MB-231) was 10.5 µM (inactive) and the GI50 (UACC-257) was 5.56 µM (inactive).
In the case of `CN(C)c1ccc(C2SCC(=O)N2c2nc3cc4sc(N5C(=O)CSC5c5ccc(N(C)C)cc5)nc4cc3s2)cc1` (stereo not given), the GI50 (ACHN) is reported as 28.1 µM (inactive), the GI50 (NCI-H522) is reported as 3.76 µM (inactive) and the GI50 (RPMI-8226) is reported as 19.5 µM (inactive). The GI50 (SNB-75) was > 90.6 µM (inactive), the GI50 (SF-295) was 46.6 µM (inactive) and the GI50 (OVCAR-3) was 48.3 µM (inactive). The GI50 (NCI/ADR-RES) was > 23.3 µM (inactive), the GI50 (NCI-H23) was 11.4 µM (inactive) and the GI50 (HL-60) was 29 µM (inactive). The GI50 (OVCAR-5) was > 94 µM (inactive), the GI50 (M14) was 51.3 µM (inactive) and the GI50 (MDA-N) was 45.2 µM (inactive). For the same molecule, the GI50 (CCRF-CEM) was 3.41 µM (inactive), the GI50 (SK-MEL-5) was 32 µM (inactive) and the GI50 (HOP-92) was > 60.5 µM (inactive). For the same molecule, the GI50 (SW-620) was 8.02 µM (inactive), the GI50 (Malme-3M) was > 100 µM (inactive) and the GI50 (SR) was 6.62 µM (inactive). For the same molecule, the GI50 (MDA-MB-231) was > 51.8 µM (inactive) and the GI50 (UACC-257) was > 25.5 µM (inactive).
For `C=C1c2nc3ccccc3n2C=C(c2ccc(Cl)cc2)N1c1ccc(OC)cc1`, the GI50 (ACHN) was 3.56 µM (inactive), the GI50 (NCI-H522) was 4 µM (inactive) and the GI50 (RPMI-8226) was 14.5 µM (inactive). The GI50 (SNB-75) was 2.67 µM (inactive), the GI50 (SF-295) was 6.19 µM (inactive) and the GI50 (OVCAR-3) was 10.8 µM (inactive). For the same molecule, the GI50 (NCI/ADR-RES) was 3.48 µM (inactive), the GI50 (NCI-H23) was 9.95 µM (inactive) and the GI50 (HL-60) was 76.7 µM (inactive). For the same molecule, the GI50 (OVCAR-5) was 17.4 µM (inactive), the GI50 (M14) was 7.8 µM (inactive) and the GI50 (MDA-N) was 13.2 µM (inactive). For the same molecule, the GI50 (CCRF-CEM) was > 100 µM (inactive), the GI50 (SK-MEL-5) was 6.53 µM (inactive) and the GI50 (HOP-92) was 10.3 µM (inactive). For the same molecule, the GI50 (SW-620) was 17.7 µM (inactive), the GI50 (Malme-3M) was 2.82 µM (inactive) and the GI50 (SR) was 11.2 µM (inactive). For the same molecule, the GI50 (MDA-MB-231) was 12.7 µM (inactive) and the GI50 (UACC-257) was 5.07 µM (inactive).
In the case of `CCOC(=O)C(Cl)(NC(=O)c1c(F)c(F)c(F)c(F)c1F)C(F)(F)F` (stereo not given), the GI50 (ACHN) is reported as > 100 µM (inactive), the GI50 (NCI-H522) is reported as 19.5 µM (inactive) and the GI50 (RPMI-8226) is reported as > 100 µM (inactive). The GI50 (SNB-75) was > 100 µM (inactive), the GI50 (SF-295) was > 100 µM (inactive) and the GI50 (OVCAR-3) was > 100 µM (inactive). The GI50 (NCI/ADR-RES) was > 100 µM (inactive), the GI50 (NCI-H23) was > 100 µM (inactive) and the GI50 (HL-60) was 22.1 µM (inactive). The GI50 (OVCAR-5) was > 100 µM (inactive), the GI50 (M14) was > 100 µM (inactive) and the GI50 (MDA-N) was > 100 µM (inactive). The GI50 (CCRF-CEM) was > 100 µM (inactive), the GI50 (SK-MEL-5) was > 100 µM (inactive) and the GI50 (HOP-92) was 28.3 µM (inactive). The GI50 (SW-620) was > 100 µM (inactive), the GI50 (Malme-3M) was > 100 µM (inactive) and the GI50 (SR) was 9.4 µM (inactive). The GI50 (MDA-MB-231) was > 100 µM (inactive) and the GI50 (UACC-257) was > 100 µM (inactive).
In the case of `NC(=O)c1[nH]nc(C2OC(CO)C(O)C2O)c1O` (stereo not given), the GI50 (ACHN) is reported as 0.5 µM (active), the GI50 (NCI-H522) is reported as 37.2 µM (inactive) and the GI50 (RPMI-8226) is reported as 0.682 µM (active). For the same molecule, the GI50 (SNB-75) was 101 µM (inactive), the GI50 (SF-295) was 0.851 µM (active) and the GI50 (OVCAR-3) was 19.6 µM (inactive). The GI50 (NCI/ADR-RES) was 2.68 µM (inactive), the GI50 (NCI-H23) was 9.59 µM (inactive) and the GI50 (HL-60) was 0.724 µM (active). For the same molecule, the GI50 (OVCAR-5) was 183 µM (inactive), the GI50 (M14) was 95.3 µM (inactive) and the GI50 (MDA-N) was 3.39 µM (inactive). The GI50 (CCRF-CEM) was 0.507 µM (active), the GI50 (SK-MEL-5) was 64.3 µM (inactive) and the GI50 (HOP-92) was 30.5 µM (inactive). The GI50 (SW-620) was 0.55 µM (active), the GI50 (Malme-3M) was 368 µM (inactive) and the GI50 (SR) was 0.5 µM (active). For the same molecule, the GI50 (MDA-MB-231) was 8.59 µM (inactive) and the GI50 (UACC-257) was 966 µM (inactive).
In the case of `CN(C)Cc1cc(C(=O)/C=C/c2ccc(F)cc2)cc(CN(C)C)c1O`, the GI50 (ACHN) is reported as 14.6 µM (inactive), the GI50 (NCI-H522) is reported as 15.2 µM (inactive) and the GI50 (RPMI-8226) is reported as 22.5 µM (inactive). The GI50 (SNB-75) was 22.9 µM (inactive), the GI50 (SF-295) was 14 µM (inactive) and the GI50 (OVCAR-3) was 9.23 µM (inactive). The GI50 (NCI/ADR-RES) was 24.7 µM (inactive), the GI50 (NCI-H23) was 34.4 µM (inactive) and the GI50 (HL-60) was 11.5 µM (inactive). For the same molecule, the GI50 (OVCAR-5) was 57.7 µM (inactive), the GI50 (M14) was 12.4 µM (inactive) and the GI50 (MDA-N) was > 10 µM (inactive). For the same molecule, the GI50 (CCRF-CEM) was 17 µM (inactive), the GI50 (SK-MEL-5) was 19.1 µM (inactive) and the GI50 (HOP-92) was 29.2 µM (inactive). For the same molecule, the GI50 (SW-620) was 20.4 µM (inactive), the GI50 (Malme-3M) was 17.7 µM (inactive) and the GI50 (SR) was 20.6 µM (inactive). For the same molecule, the GI50 (MDA-MB-231) was 31 µM (inactive) and the GI50 (UACC-257) was 13.4 µM (inactive).
